Series [1] has as its target PLK1 (Homo sapiens, UniProt P53350). As to conditions: including other PLK members; cited from earlier work.
Series [2] has as its system OCI-AML3 xenograft. Nature of the series: Efficacy of onvansertib alone and in combination with venetoclax in an OCI-AML3 xenograft model (tumor volume, survival). The format is in vivo, CB17 NOD.SCID mice. The note with it: for Average tumor volume: oral gavage; for Mean Diff. (vehicle vs. treatment), Dunnett's multiple comparisons test: tumor volumes from day 14. The procedure:
In this example, the efficacy of onvansertib alone and in combination with venetoclax was evaluated in an OCI-AML3 xenograft model.
The OCI-AML3 cell line easily engrafts in NOD/SCID mice, maintaining the typical features of NPMc+ AML, including NPM cytoplasmic expression.
OCI-AML3 cells (DSMZ cat no: ACC 582) were cultured in RPMI supplemented with 10% FBS and 1%P/S, in a humidified incubator at 37° C. and 5% CO2. Normocin (Invivogen) was also added according to the manufacturer's recommendation to prevent mycoplasma growth.
(§1) CB17 NOD.SCID mice (female, 5 weeks old) were procured through Envigo (Strain NOD.CB17-Prkdc*scidNCrHsd). Mice were fed Teklad irradiated (sterilized) mouse diet and bedded with Teklad irradiated (sterilized) corncob bedding from Envigo (Indianapolis, Ind.). Mice were housed in Optimice carousel sterile quarters with filtered air supply in disposable cages from Animal Care Systems, Inc. (Centennial, Colo.).
On the day of implantation (Oct. 8, 2019), OCI-AML3 cells were collected and spun at 400 ×g. Media was aspirated and cells were resuspended in 50:50 *Cultrex:PBS (w/o calcium and magnesium) at a concentration of 1×10^8 cells/mL. A volume of 100 μL was injected into the right hind flank of each animal (a total of 1×10^7 cells). Filled syringes and cells were kept on ice to prevent gelling of matrigel. *Cultrex: BME, type 3, 17.24 mg/mL R&D systems Cat. #3632-005-02, Lot #40498J17
(§2) Tumor volumes were monitored, and, when mean tumor volume reached ˜200 mm^3, mice were stratified and placed into (4) treatment groups of (10) mice as outlined in Table 1.
(§3) Treatments were administered by oral gavage (polypropylene needles, Instech, Cat. FTP-20-38) daily for venetoclax for 14 days, and 5 days on 2 days off for two cycles for Onvansertib. For clarity, the combination was dosed so that venetoclax was given daily and the onvansertib was given 5 days on, 2 days off, just like the single agent groups.
Individual tumor volumes were measured by electronic caliper 2× a week.
Using tumor volumes from day 14 (the last day with all mice on study), an ordinary ANOVA test with a Dunnett's multiple comparison was performed using Prism (graphpad v. 8.3.0) (Table 4).
A survival graph was plotted (FIG. 2) and survival analysis (death=takedown for tumor burden limit) was also performed using Prism software (individual comparisons of survival curves using the Mantel-Cox test and Gehan-Breslow-Wilcoxon test shown in Table 5).

For series [3] the following is noted: patients with advanced/metastatic solid tumors, cited from earlier work.
Series [4] in a line: Animal health: body weight and tolerability in the OCI-AML3 xenograft study. The class given is in vivo, CB17 NOD.SCID mice. As to conditions: the values are: relative body weight (ratio to day 0).
Source text: as §1, §2, §3
All dosing was performed without any unexpected problems noted. […] Therefore, the single agents and combination were tolerated at the tested dose and schedule.
The group average change in weight relative to day 0 of the study is shown in […]

The subject of series [5] is OCI-AML3 xenograft. In words: Efficacy of onvansertib alone and in combination with venetoclax in an OCI-AML3 xenograft model (tumor volume, survival). The note with it: onvansertib 40 mg/kg. The format is in vivo, CB17 NOD.SCID mice.
Series [6] deals with AML cell lines. The note with it: cited from earlier work.
Setting [7] is: Day 0, venetoclax 75 mg/kg, onvansertib 30 mg/kg.
Setting [8] is: Day 4, venetoclax 75 mg/kg, onvansertib 30 mg/kg.
Where [9] appears, read: Day 7, venetoclax 75 mg/kg, onvansertib 30 mg/kg.
The mark [10] stands for this setting: Day 11, venetoclax 75 mg/kg, onvansertib 30 mg/kg.
The mark [11] stands for this setting: Day 14, venetoclax 75 mg/kg, onvansertib 30 mg/kg.
Where [12] appears, read: Day 18, venetoclax 75 mg/kg, onvansertib 30 mg/kg.

The values below come from patent publication US20230113501A1, “TREATMENT OF LEUKEMIAS AND LYMPHOMAS WITH COMBINATIONS OF BCL-2 INHIBITORS AND PLK1 INHIBITORS” (Cardiff Oncology, Inc., priority 2020, published 2023).

Chain of PLK1 (P53350 whole entry): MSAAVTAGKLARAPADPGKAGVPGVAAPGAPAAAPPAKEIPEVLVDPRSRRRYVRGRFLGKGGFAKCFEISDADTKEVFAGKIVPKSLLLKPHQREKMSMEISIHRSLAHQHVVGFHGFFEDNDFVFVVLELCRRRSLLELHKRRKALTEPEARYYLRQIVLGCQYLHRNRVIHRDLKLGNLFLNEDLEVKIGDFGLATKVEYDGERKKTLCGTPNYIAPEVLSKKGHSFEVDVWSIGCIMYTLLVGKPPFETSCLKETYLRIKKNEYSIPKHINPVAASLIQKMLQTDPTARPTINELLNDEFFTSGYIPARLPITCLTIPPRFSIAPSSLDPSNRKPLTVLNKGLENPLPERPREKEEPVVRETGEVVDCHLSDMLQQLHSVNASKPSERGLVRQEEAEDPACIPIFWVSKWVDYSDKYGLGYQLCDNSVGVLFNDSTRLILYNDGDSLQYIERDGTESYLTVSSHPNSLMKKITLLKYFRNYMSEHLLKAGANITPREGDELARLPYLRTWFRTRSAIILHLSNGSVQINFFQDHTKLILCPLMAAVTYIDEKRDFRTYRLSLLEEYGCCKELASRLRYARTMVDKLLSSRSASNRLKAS

With `CN1CCN(c2ccc(OC(F)(F)F)c(Nc3ncc4c(n3)-c3c(c(C(N)=O)nn3CCO)CC4)c2)CC1` [Onvansertib, 1-(2-hydroxyethyl)-8-{[5-(4-methylpiperazin-1l-yl)-2-(trifluoromethoxy)phenyl]amino}-4,5-dihydro-1H-pyrazolo[4,3-h] quinazoline-3-carboxamide], the “Specificity for PLK1 among a panel of 296 kinases” value in series [1] is given as “high specificity”. Moreover, the Average tumor volume in series [2] (setting [7]) stood at 208.48 mm^3; in series [2] (setting [8]), 367.54 mm^3; in series [2] (setting [9]), 708.38 mm^3; in series [2] (setting [10]) it was 980.01 mm^3; in series [2] (setting [11]) it was 1461.86 mm^3; in series [2] (setting [12]), 2269.05 mm^3. For the same molecule, the “Mean Diff. (vehicle vs. treatment), Dunnett's multiple comparisons test” value in series [2] is recorded as 960. For the same molecule, in series [2] (tumor volumes from day 14, vehicle vs. treatment), the “Significant? Dunnett's multiple comparisons test” value is “Yes”. Moreover, the “Survival, Gehan-Breslow-Wilcoxon test, Are the survival curves sig different?” value in series [2] (vehicle vs. treatment) is “Yes”. Besides, the “Survival, Log-rank (Mantel-Cox) test, Are the survival curves sig different?” value in series [2] (vehicle vs. treatment) is listed as “No”. In addition, the “Survival, Log-rank (Mantel-Cox) test, Chi square” value in series [2] (vehicle vs. treatment, death = takedown for tumor burden limit) turned out to be 3.577. Besides, the “Survival, Gehan-Breslow-Wilcoxon test, Chi square” value in series [2] (vehicle vs. treatment, higher weighing for early events) was found to be 5.221. The “Activity in the OCI-AML3 xenograft (conclusion)” value in series [2] (venetoclax 75 mg/kg, onvansertib 30 mg/kg, and the combination) is “Activity was noted”. Further, the “Tumor growth inhibition as single agent” value in series [2] (venetoclax 75 mg/kg, onvansertib 30 mg/kg) is recorded as “some tumor growth inhibition”. The Half-life in series [3] is 20 and 30 hours. Also, the Primary dose-limiting toxicities entry in series [3] (reversible, recovery within 3 weeks) is “neutropenia and thrombocytopenia”. Moreover, the Relative body weight (ratio to day 0) in series [4] (Day 0) was determined as 1; in series [4] (Day 4) it was 1.04; in series [4] (Day 7) it was 1.07; in series [4] (Day 11), 1.1; in series [4] (Day 14), 1.13; in series [4] (Day 18), 1.18. Moreover, the “Single agent activity in the previous study” value in series [5] is given as “single agent activity”. Besides, the “Concentrations that inhibited cell proliferation” value in series [6] is listed as “nanomolar concentrations”.

On to `CC1(C)CCC(CN2CCN(c3ccc(C(=O)NS(=O)(=O)c4ccc(NCC5CCOCC5)c([N+](=O)[O-])c4)c(Oc4cnc5[nH]ccc5c4)c3)CC2)=C(c2ccc(Cl)cc2)C1` [Venetoclax], for which the Average tumor volume in series [2] (setting [7]) is 203.78 mm^3; in series [2] (setting [8]), 441.01 mm^3; in series [2] (setting [9]) it was 861.05 mm^3; in series [2] (setting [10]) it was 1362.15 mm^3; in series [2] (setting [11]), 2110.23 mm^3; in series [2] (setting [12]), 2856.33 mm^3. Further, the “Mean Diff. (vehicle vs. treatment), Dunnett's multiple comparisons test” value in series [2] is on record as 311.6. Besides, the Relative body weight (ratio to day 0) in series [4] (Day 0) worked out at 1; in series [4] (Day 4), 1.03; in series [4] (Day 7) it was 1.07; in series [4] (Day 11), 1.09; in series [4] (Day 14) it was 1.12; in series [4] (Day 18) it was 1.15.
